Here are results for five compounds from ChEMBL document CHEMBL5724914, “Linking interpersonal differences in gut microbiota composition and drug biotransformation activity” (2024).

Data set [1] can be described thus: The drug is tested on Z-030 corresponding to mouse gut metagenome with ENA study accession number: PRJEB37062 and ENA sample accession number: ERS12561829 for biotransformation under anaerobic condition. The drug concentrations were measured over 9 timepoints collected between 0 and 24 hours of incubation by liquid-chromatography-coupled mass spectrometry (LC–MS). As to conditions: 2 µM.

The nature of data set [2]: The drug is tested on Z-025 corresponding to rabbit gut metagenome with ENA study accession number: PRJEB37062 and ENA sample accession number: ERS12561824 for biotransformation under anaerobic condition. The drug concentrations were measured over 9 timepoints collected between 0 and 24 hours of incubation by liquid-chromatography-coupled mass spectrometry (LC–MS). As to conditions: 2 µM.

A short description of data set [3]: The drug is tested on Z-016 corresponding to mouse gut metagenome with ENA study accession number: PRJEB37062 and ENA sample accession number: ERS12561815 for biotransformation under anaerobic condition. The drug concentrations were measured over 9 timepoints collected between 0 and 24 hours of incubation by liquid-chromatography-coupled mass spectrometry (LC–MS). As to conditions: 2 µM.

Data set [4] in a line: The drug is tested on Z-008 corresponding to metagenome with ENA study accession number: PRJEB37062 and ENA sample accession number: ERS12561808 for biotransformation under anaerobic condition. The drug concentrations were measured over 9 timepoints collected between 0 and 24 hours of incubation by liquid-chromatography-coupled mass spectrometry (LC–MS). As to conditions: 2 µM.

A short description of data set [5]: The drug is tested on Z-005 corresponding to metagenome with ENA study accession number: PRJEB37062 and ENA sample accession number: ERS12561805 for biotransformation under anaerobic condition. The drug concentrations were measured over 9 timepoints collected between 0 and 24 hours of incubation by liquid-chromatography-coupled mass spectrometry (LC–MS). Particulars: 2 µM.

Data set [6] is described as follows: The drug is tested on Z-004 corresponding to metagenome with ENA study accession number: PRJEB37062 and ENA sample accession number: ERS12561804 for biotransformation under anaerobic condition. The drug concentrations were measured over 9 timepoints collected between 0 and 24 hours of incubation by liquid-chromatography-coupled mass spectrometry (LC–MS). Particulars: 2 µM.

Data set [7] can be described thus: The drug is tested on WLS-310 corresponding to human gut metagenome with ENA study accession number: PRJEB37062 and ENA sample accession number: ERS12561785 for biotransformation under anaerobic condition. The drug concentrations were measured over 9 timepoints collected between 0 and 24 hours of incubation by liquid-chromatography-coupled mass spectrometry (LC–MS). As to conditions: 2 µM.

Data set [8] can be described thus: The drug is tested on WLS-098 corresponding to human gut metagenome with ENA study accession number: PRJEB37062 and ENA sample accession number: ERS12561754 for biotransformation under anaerobic condition. The drug concentrations were measured over 9 timepoints collected between 0 and 24 hours of incubation by liquid-chromatography-coupled mass spectrometry (LC–MS). Particulars: 2 µM.

A short description of data set [9]: The drug is tested on WLS-090 corresponding to human gut metagenome with ENA study accession number: PRJEB37062 and ENA sample accession number: ERS12561753 for biotransformation under anaerobic condition. The drug concentrations were measured over 9 timepoints collected between 0 and 24 hours of incubation by liquid-chromatography-coupled mass spectrometry (LC–MS). As to conditions: 2 µM.

Data set [10] is described as follows: The drug is tested on WLS-086 corresponding to human gut metagenome with ENA study accession number: PRJEB37062 and ENA sample accession number: ERS12561752 for biotransformation under anaerobic condition. The drug concentrations were measured over 9 timepoints collected between 0 and 24 hours of incubation by liquid-chromatography-coupled mass spectrometry (LC–MS). Particulars: 2 µM.

A short description of data set [11]: The drug is tested on WLS-039 corresponding to human gut metagenome with ENA study accession number: PRJEB37062 and ENA sample accession number: ERS12561746 for biotransformation under anaerobic condition. The drug concentrations were measured over 9 timepoints collected between 0 and 24 hours of incubation by liquid-chromatography-coupled mass spectrometry (LC–MS). As to conditions: 2 µM.

The nature of data set [12]: The drug is tested on WLS-006 corresponding to human gut metagenome with ENA study accession number: PRJEB37062 and ENA sample accession number: ERS12561741 for biotransformation under anaerobic condition. The drug concentrations were measured over 9 timepoints collected between 0 and 24 hours of incubation by liquid-chromatography-coupled mass spectrometry (LC–MS). As to conditions: 2 µM.

For data set [13] the following is noted: human gut metagenome, 24 h, 2 µM.
For data set [14] the following is noted: human gut metagenome, 24 h, 2 µM. The source holds these as a separate data set.
For data set [15] the following is noted: human gut metagenome, 24 h, 2 µM. This is another data set of the same source.
For data set [16] the following is noted: human gut metagenome, 24 h, 2 µM. The source holds these as a separate data set.
For data set [17] the following is noted: human gut metagenome, 24 h, 2 µM. The source holds these as a separate data set.
The conditions of data set [18]: human gut metagenome, 24 h, 2 µM. This is another data set of the same source.
For data set [19] the following is noted: human gut metagenome, 24 h, 2 µM. The source holds these as a separate data set.
For data set [20] the following is noted: human gut metagenome, 24 h, 2 µM. This is another data set of the same source.
Also: call rule not given here.

Regarding `CC(C)NCC(O)COc1ccc(CCOCC2CC2)cc1` (stereo not given) [BETAXOLOL], the “Bacterial Biotransformation” value is “Compound NOT metabolized” in data set [1]; “Compound metabolized” in [2]; “Compound NOT metabolized” in data set [3]; “Compound NOT metabolized” in data set [4]; “Compound NOT metabolized” in data set [5]; “Compound metabolized” in [6]. Further, the “Bacterial Biotransformation” value is given as “Compound metabolized” in data set [7]; “Compound metabolized” in data set [8]; “Compound metabolized” in [9]; “Compound metabolized” in [10]; “Compound NOT metabolized” in data set [11]; “Compound NOT metabolized” in [12]. The “Bacterial Biotransformation” value in [13], in [14], in data set [15], in data set [16], in data set [17] and in [18] was “Compound NOT metabolized” throughout. Moreover, the “Bacterial Biotransformation” value is listed as “Compound NOT metabolized” in data set [19] and “Compound metabolized” in [20].

In the case of `CC(C)(Oc1ccc(CCNC(=O)c2ccc(Cl)cc2)cc1)C(=O)O` [BEZAFIBRATE], the “Bacterial Biotransformation” value in data set [1] is recorded as “Compound NOT metabolized”; in [2] it was “Compound NOT metabolized”; in data set [3] it was “Compound metabolized”; in [4], “Compound NOT metabolized”; in data set [5], “Compound NOT metabolized”; in [6] it was “Compound NOT metabolized”. For the same compound, the “Bacterial Biotransformation” value in data set [7], in data set [8], in data set [9], in data set [10], in [11] and in data set [12] was “Compound metabolized” throughout. The “Bacterial Biotransformation” value in data set [13] is reported as “Compound metabolized”; in data set [14], “Compound metabolized”; in data set [15] it was “Compound metabolized”; in [16], “Compound metabolized”; in data set [17], “Compound metabolized”; in data set [18], “Compound NOT metabolized”. Moreover, the “Bacterial Biotransformation” value in data set [19] and in data set [20] was “Compound metabolized” in each case.

As for `CC(O)(CS(=O)(=O)c1ccc(F)cc1)C(=O)Nc1ccc(C#N)c(C(F)(F)F)c1` (stereo not given) [BICALUTAMIDE], the “Bacterial Biotransformation” value in [1], in data set [2], in data set [3], in data set [4], in data set [5] and in data set [6] was “Compound NOT metabolized” in each case. In addition, the “Bacterial Biotransformation” value in [7], in data set [8], in data set [9], in data set [10], in [11] and in data set [12] was “Compound NOT metabolized” in each case. Also, the “Bacterial Biotransformation” value in data set [13], in data set [14], in data set [15], in data set [16], in [17] and in data set [18] was “Compound NOT metabolized” each time. The “Bacterial Biotransformation” value in data set [19] and in data set [20] was “Compound NOT metabolized” throughout.

Turning to `O=C(NCc1ccccc1)OCCO` [BURAMATE], the “Bacterial Biotransformation” value in data set [1], in data set [2], in data set [3], in data set [4], in data set [5] and in [6] was “Compound NOT metabolized” each time. In addition, the “Bacterial Biotransformation” value in data set [7], in data set [8], in data set [9], in [10], in [11] and in [12] was “Compound NOT metabolized” throughout. Also, the “Bacterial Biotransformation” value in data set [13], in data set [14], in [15], in data set [16], in data set [17] and in data set [18] was “Compound NOT metabolized” in each case. Also, the “Bacterial Biotransformation” value in data set [19] and in data set [20] was “Compound NOT metabolized” in each case.

For the compound `CCN(CC)CCOCCOC(=O)C1(c2ccccc2)CCCC1.O=C(O)CC(O)(CC(=O)O)C(=O)O` [CARBETAPENTANE CITRATE], the “Bacterial Biotransformation” value is on record as “Compound NOT metabolized” in [1]; “Compound NOT metabolized” in data set [2]; “Compound metabolized” in data set [3]; “Compound NOT metabolized” in data set [4]; “Compound metabolized” in data set [5]; “Compound metabolized” in [6]. For the same compound, the “Bacterial Biotransformation” value in data set [7] was “Compound metabolized”; in [8], “Compound metabolized”; in [9] it was “Compound metabolized”; in [10], “Compound NOT metabolized”; in data set [11], “Compound metabolized”; in [12], “Compound metabolized”. For the same compound, the “Bacterial Biotransformation” value in data set [13] was “Compound metabolized”; in [14] it was “Compound metabolized”; in data set [15], “Compound NOT metabolized”; in data set [16], “Compound metabolized”; in [17], “Compound NOT metabolized”; in [18], “Compound NOT metabolized”. Further, the “Bacterial Biotransformation” value in [19] and in data set [20] was “Compound metabolized” throughout.
